Here are results for 15 compounds from ChEMBL document CHEMBL1165865, “Design, synthesis and determination of antifungal activity of 5(6)-substituted benzotriazoles” (2010).

What all share (format): functional
One assay relates to Candida albicans. As to the kind of experiment: Antifungal activity against Candida albicans ATCC 90028 after 24 hrs by macrodilution method. As to conditions: ATCC 90028, 24 h.
In another assay the test system is Nakaseomyces glabratus. Briefly: Antifungal activity against Candida glabrata ATCC 3916 after 24 hrs by macrodilution method. Particulars: ATCC 3916, 24 h.
A further assay has as its system Pichia kudriavzevii. As to the kind of experiment: Antifungal activity against Candida krusei ATCC 30068 after 24 hrs by macrodilution method. As to conditions: ATCC 30068, 24 h.
A further assay deals with Candida parapsilosis. As to the kind of experiment: Antifungal activity against Candida parapsilosis ATCC 22019 after 24 hrs by macrodilution method. As to conditions: Lodderomyces parapsilosis, ATCC 22019, 24 h.
In a further assay the test system is Saccharomyces cerevisiae. As to the kind of experiment: Antifungal activity against Saccharomyces cerevisiae DSMZ 1333 after 24 hrs by macrodilution method. As to conditions: DSMZ 1333, 24 h.
The next assay deals with Aspergillus niger. As to the kind of experiment: Antifungal activity against Aspergillus niger DSMZ 737 after 24 hrs by macrodilution method. Particulars: DSMZ 737, 24 h.

≈ marks a conversion by molar mass, not a printed value. Some results are limits rather than exact numbers.

The term MIC denotes the smallest concentration in the dilution series that meets the test's criterion for growth inhibition. For `Cc1ccc2c(c1)nnn2CC(O)(Cn1cncn1)c1ccc(F)cc1F` (racemic), the MIC against Candida albicans came out at 12.5 µg/mL (≈ 33.8 µM); in the assay on Nakaseomyces glabratus it was 25 µg/mL (≈ 67.5 µM); in the assay with Pichia kudriavzevii, 25 µg/mL (≈ 67.5 µM); in the assay on Candida parapsilosis, 12.5 µg/mL (≈ 33.8 µM); against Saccharomyces cerevisiae it was 6.2 µg/mL (≈ 16.7 µM); against Aspergillus niger, 50 µg/mL (≈ 135 µM).

For the compound `O=[N+]([O-])c1ccc2nnn(CC(O)(Cn3cncn3)c3ccc(F)cc3F)c2c1` (racemic), the MIC in the assay with Candida albicans was 50 µg/mL (≈ 125 µM); in the assay with Nakaseomyces glabratus, over 100 µg/mL; against Pichia kudriavzevii, over 100 µg/mL; against Candida parapsilosis it was 100 µg/mL (≈ 249 µM); against Saccharomyces cerevisiae it was 100 µg/mL (≈ 249 µM); with Aspergillus niger it was 100 µg/mL (≈ 249 µM).

As to `OC(Cn1cncn1)(Cn1nnc2cccnc21)c1ccc(F)cc1F` (racemic), the MIC against Candida albicans was 6.2 µg/mL (≈ 17.4 µM); in the assay with Nakaseomyces glabratus, 100 µg/mL (≈ 280 µM); in the assay on Pichia kudriavzevii it was 100 µg/mL (≈ 280 µM); with Candida parapsilosis, 25 µg/mL (≈ 70 µM); in the assay with Saccharomyces cerevisiae it was 50 µg/mL (≈ 140 µM); against Aspergillus niger, 100 µg/mL (≈ 280 µM).

As to `OC(Cn1cncn1)(Cn1nnc2cc(F)ccc21)c1ccc(F)cc1F` (racemic), the MIC against Candida albicans worked out at 25 µg/mL (≈ 66.8 µM); against Nakaseomyces glabratus, 25 µg/mL (≈ 66.8 µM); in the assay with Pichia kudriavzevii, 50 µg/mL (≈ 134 µM); against Candida parapsilosis, 3.1 µg/mL (≈ 8.28 µM); against Saccharomyces cerevisiae, 12.5 µg/mL (≈ 33.4 µM); against Aspergillus niger, 100 µg/mL (≈ 267 µM).

For `O=[N+]([O-])c1ccc2c(c1)nnn2CC(O)(Cn1cncn1)c1ccc(F)cc1F` (racemic), the MIC in the assay on Candida albicans worked out at 1.6 µg/mL (≈ 3.99 µM); against Nakaseomyces glabratus, 100 µg/mL (≈ 249 µM); in the assay with Pichia kudriavzevii, 50 µg/mL (≈ 125 µM); in the assay on Candida parapsilosis, 6.2 µg/mL (≈ 15.4 µM); with Saccharomyces cerevisiae, 12.5 µg/mL (≈ 31.1 µM); against Aspergillus niger, 100 µg/mL (≈ 249 µM).

Consider `OC(Cn1cncn1)(Cn1nnc2ccc(F)cc21)c1ccc(F)cc1F` (racemic), for which the MIC against Candida albicans was 12.5 µg/mL (≈ 33.4 µM); against Nakaseomyces glabratus, over 100 µg/mL; in the assay with Pichia kudriavzevii, over 100 µg/mL; with Candida parapsilosis it was 25 µg/mL (≈ 66.8 µM); in the assay with Saccharomyces cerevisiae, 6.2 µg/mL (≈ 16.6 µM); in the assay on Aspergillus niger, over 100 µg/mL.

Turning to `Cc1cc2nnn(CC(O)(Cn3cncn3)c3ccc(F)cc3F)c2cc1C` (racemic), the MIC with Candida albicans is 12.5 µg/mL (≈ 32.5 µM); in the assay with Nakaseomyces glabratus, 100 µg/mL (≈ 260 µM); against Pichia kudriavzevii it was over 100 µg/mL; against Candida parapsilosis, 50 µg/mL (≈ 130 µM); with Saccharomyces cerevisiae, 50 µg/mL (≈ 130 µM); in the assay on Aspergillus niger, 100 µg/mL (≈ 260 µM).

Consider `OC(Cn1cncn1)(Cn1nnc2cc(Cl)ccc21)c1ccc(F)cc1F` (racemic), for which the MIC against Candida albicans was 6.2 µg/mL (≈ 15.9 µM); against Nakaseomyces glabratus, 50 µg/mL (≈ 128 µM); against Pichia kudriavzevii, over 100 µg/mL; with Candida parapsilosis it was 12.5 µg/mL (≈ 32 µM); against Saccharomyces cerevisiae it was 6.2 µg/mL (≈ 15.9 µM); against Aspergillus niger, 25 µg/mL (≈ 64 µM).

For the compound `OC(Cn1cncn1)(Cn1nnc2ccc(Cl)cc21)c1ccc(F)cc1F` (racemic), the MIC was 6.2 µg/mL (≈ 15.9 µM) against Candida albicans; over 100 µg/mL against Nakaseomyces glabratus; 100 µg/mL (≈ 256 µM) against Pichia kudriavzevii; 100 µg/mL (≈ 256 µM) in the assay with Candida parapsilosis; 100 µg/mL (≈ 256 µM) in the assay with Saccharomyces cerevisiae; over 100 µg/mL against Aspergillus niger.

As to `Cc1ccc2nnn(CC(O)(Cn3cncn3)c3ccc(F)cc3F)c2c1` (racemic), the MIC stood at 25 µg/mL (≈ 67.5 µM) in the assay with Candida albicans; 50 µg/mL (≈ 135 µM) against Nakaseomyces glabratus; 25 µg/mL (≈ 67.5 µM) against Pichia kudriavzevii; 6.2 µg/mL (≈ 16.7 µM) in the assay with Candida parapsilosis; 6.2 µg/mL (≈ 16.7 µM) against Saccharomyces cerevisiae; 12.5 µg/mL (≈ 33.8 µM) in the assay with Aspergillus niger.

Turning to `COc1ccc2c(c1)nnn2CC(O)(Cn1cncn1)c1ccc(F)cc1F` (racemic), the MIC with Candida albicans was 12.5 µg/mL (≈ 32.4 µM); in the assay with Nakaseomyces glabratus it was 50 µg/mL (≈ 129 µM); in the assay on Pichia kudriavzevii, 50 µg/mL (≈ 129 µM); against Candida parapsilosis it was 12.5 µg/mL (≈ 32.4 µM); against Saccharomyces cerevisiae it was 25 µg/mL (≈ 64.7 µM); in the assay with Aspergillus niger, 100 µg/mL (≈ 259 µM).

Regarding `Cc1cc2nn(CC(O)(Cn3cncn3)c3ccc(F)cc3F)nc2cc1C` (racemic), the MIC in the assay on Candida albicans stood at 1.6 µg/mL (≈ 4.16 µM); against Nakaseomyces glabratus, 25 µg/mL (≈ 65 µM); in the assay on Pichia kudriavzevii, 100 µg/mL (≈ 260 µM); against Candida parapsilosis it was 3.1 µg/mL (≈ 8.06 µM); with Saccharomyces cerevisiae, 6.2 µg/mL (≈ 16.1 µM); in the assay with Aspergillus niger, 25 µg/mL (≈ 65 µM).

In the case of `OC(Cn1cncn1)(Cn1nnc2ccccc21)c1ccc(F)cc1F` (racemic), the MIC is 0.8 µg/mL (≈ 2.25 µM) against Candida albicans; 25 µg/mL (≈ 70.2 µM) against Nakaseomyces glabratus; 25 µg/mL (≈ 70.2 µM) in the assay with Pichia kudriavzevii; 0.8 µg/mL (≈ 2.25 µM) in the assay on Candida parapsilosis; 1.6 µg/mL (≈ 4.49 µM) with Saccharomyces cerevisiae; over 100 µg/mL against Aspergillus niger.

On to `C[C@@H]1[C@H](O)[C@@H](C)/C=C/C=C/C=C/C=C/C=C/C=C/C=C/[C@H](O[C@@H]2O[C@H](C)[C@@H](O)[C@H](N)[C@@H]2O)C[C@@H]2O[C@](O)(C[C@@H](O)C[C@@H](O)[C@H](O)CC[C@@H](O)C[C@@H](O)CC(=O)O[C@H]1C)C[C@H](O)[C@H]2C(=O)O` [AMPHOTERICIN B], for which the MIC against Candida albicans is 0.4 µg/mL (≈ 0.433 µM); against Nakaseomyces glabratus, 0.4 µg/mL (≈ 0.433 µM); in the assay on Pichia kudriavzevii, 0.4 µg/mL (≈ 0.433 µM); against Candida parapsilosis, 0.4 µg/mL (≈ 0.433 µM); in the assay on Saccharomyces cerevisiae it was 0.4 µg/mL (≈ 0.433 µM); against Aspergillus niger, 0.8 µg/mL (≈ 0.866 µM).

As to `OC(Cn1cncn1)(Cn1cncn1)c1ccc(F)cc1F` [FLUCONAZOLE], the MIC in the assay on Candida albicans was 0.8 µg/mL (≈ 2.61 µM); against Nakaseomyces glabratus, 50 µg/mL (≈ 163 µM); in the assay on Pichia kudriavzevii, 50 µg/mL (≈ 163 µM); against Candida parapsilosis, 0.8 µg/mL (≈ 2.61 µM); in the assay on Saccharomyces cerevisiae it was 0.8 µg/mL (≈ 2.61 µM); in the assay with Aspergillus niger, over 100 µg/mL.
